Test results published in patent publication US5939096A, “Liposome drug-loading method and composition” (priority 1997, dated 1999).
Read-outs that look alike come from different tables or passages of the source.

Tests used:
[1] = pH 9
[2] = Loading and calcium ionophore (A23187)-promoted release of entrapped nalidixic acid
Protocol: (FIG. 8, solid line) and 60° C. (broken line), respectively.
The experiment was carried out at two different temperatures to investigate how changes in lipid phase (i.e., gel versus liquid-crystalline) affects the penetration of molecules into the bilayer. When the suspension was incubated at 25° C.
A calcium ionophore, A23187, (10 micromolar) was added at either t=700 s (25° C.; FIG. 8--solid line) or at 350 s (60° C.; FIG. 8--broken line), and the fluorescence was monitored over the course of the experiment.

[3] = Permeability coefficient in HPC/cholesterol extruded vesicles; conditions: not told, permeability coefficient P, 60/40 HPC/cholesterol extruded vesicles (Table II)
Protocol: ^e in 60/40 (mol/mol) HPC/cholesterolextruded vesicles, at 25°
^e in 60/40 (mol/mol) HPC/cholesterolextruded vesicles.

[4] = Table II; cited from earlier work
[5] = n-octanol/water, cited from earlier work
[6] = not told, cited from earlier work

Molecule: O=S(=O)(O)c1cc(O)c2ccc3c(S(=O)(=O)O)cc(S(=O)(=O)O)c4ccc1c2c34 [pyranine, 8-Hydroxypyrene-1,3,6-trisulfonic acid]
- n-octanol/water partition coefficient Kp [1]: < 3 × 10^-5

Molecule: CCn1cc(C(=O)O)c(=O)c2ccc(C)nc21 [nalidixic acid]
- loading t1/2 ([2]; 25° C.): 84 s
- loading t1/2 ([2]; 60° C.): 7 s
- enhancement of loading rate ([2]; 60° C. versus 25° C.): one order of magnitude
- Papp ([3]; 25° C.): 0.014 ×10⁻⁶ cm/s
- Papp ([3]; 60° C.): 0.17 ×10⁻⁶ cm/s
- pKa [4]: 6.13

Molecule: 5(6)-carboxyfluorescein
- partition coefficient Kp ([5]; pH 6.9): 2.8 × 10^-3
- partition coefficient Kp ([5]; pH 8): 6.0 × 10^-5
- permeability coefficient P ([6]; pH 7): 8.1e-05 ×10⁻⁶ cm/s
- permeability coefficient P ([6]; pH 8.2): 7.2e-07 ×10⁻⁶ cm/s
